Data reported in patent publication US4870168A, “3-Unsaturated alkyl cephems from 3-triflyl cephems” (Bristol-Myers Company, priority 1987, dated 1989).
≈ marks a conversion by molar mass, not a printed value. Read-outs that look alike come from different tables or passages of the source.

What was measured:
Format in all cases: cell-based
[1] = system: S. aureus /Meth. Res.; assay: Antibacterial activity (MIC); details: Staphylococcus aureus
[2] = system: S. pyogenes; assay: Antibacterial activity (MIC); details: Streptococcus pyogenes
[3] = system: S. faecalis; assay: Antibacterial activity (MIC); details: Enterococcus faecalis
[4] = system: S. pneumoniae; assay: Antibacterial activity (MIC); details: Streptococcus pneumoniae
[5] = system: E. cloacae; assay: Antibacterial activity (MIC); details: Enterobacter cloacae
[6] = system: K. pneumoniae; assay: Antibacterial activity (MIC); details: Klebsiella pneumoniae
[7] = system: E. coli; assay: Antibacterial activity (MIC); details: Escherichia coli
[8] = system: S. aureus /Pen. Res.; assay: Antibacterial activity (MIC); details: Staphylococcus aureus
[9] = system: S. aureus; assay: Antibacterial activity (MIC); details: Staphylococcus aureus
[10] = system: S. aureus /50% serum; assay: Antibacterial activity (MIC), 50% serum; details: Staphylococcus aureus
[11] = system: P. mirabilis; assay: Antibacterial activity (MIC); details: Proteus mirabilis
[12] = S. aureus /Meth. Res., read-out: MIC
[13] = S. aureus /Pen. Res., read-out: MIC

| SMILES | MIC [1] [µg/mL] | MIC [2] [µg/mL] | MIC [3] [µg/mL] | MIC [4] [µg/mL] | MIC [5] [µg/mL] | MIC ([6]; first of two lines) [µg/mL] | MIC ([6]; second of two lines) [µg/mL] | MIC ([7]; first of two lines) [µg/mL] | MIC ([7]; second of two lines) [µg/mL] | MIC [8] [µg/mL] | MIC [9] [µg/mL] | MIC [10] [µg/mL] | MIC [11] [µg/mL] | MIC [1, 12] [µg/mL] | MIC [8, 13] [µg/mL] |
| --- | --- | --- | --- | --- | --- | --- | --- | --- | --- | --- | --- | --- | --- | --- | --- |
| N[C@@H](C(=O)N[C@@H]1C(=O)N2C(C(=O)O)=C(Cl)CS[C@H]12)c1ccccc1 [CEFACLOR, reference compound] | > 125 | 0.13 (≈ 0.353 µM) | 32 (≈ 87 µM) | 0.13 (≈ 0.353 µM) | > 125 | 0.5 (≈ 1.36 µM) | 63 (≈ 171 µM) | 1 (≈ 2.72 µM) | 2 (≈ 5.44 µM) | 1 (≈ 2.72 µM) | 0.25 (≈ 0.68 µM) | 1 (≈ 2.72 µM) | 2 (≈ 5.44 µM) |  |  |
| CC1=C(C(=O)O)N2C(=O)[C@@H](NC(=O)[C@H](N)c3ccccc3)[C@H]2SC1 [CEPHALEXIN, reference compound] | > 125 | 0.25 (≈ 0.72 µM) | 63 (≈ 181 µM) | 0.5 (≈ 1.44 µM) | > 125 | 4 (≈ 11.5 µM) | 63 (≈ 181 µM) | 4 (≈ 11.5 µM) | 4 (≈ 11.5 µM) | 8 (≈ 23 µM) | 0.5 (≈ 1.44 µM) | 1 (≈ 2.88 µM) | 4 (≈ 11.5 µM) |  |  |
| C/C=C\C1=C(C(=O)OC(c2ccccc2)c2ccccc2)N2C(=O)C(NC(=O)Cc3ccccc3)[C@H]2SC1 (some centres unmarked) [Ex. 1, Diphenylmethyl 7-phenylacetamido-3-(Z-1-propenyl)-3-cephem-4-carboxylate] |  | 0.016 (≈ 0.0305 µM) | 8 (≈ 15.2 µM) | 0.03 (≈ 0.0572 µM) | > 125 | 0.5 (≈ 0.953 µM) | 63 (≈ 120 µM) | 1 (≈ 1.91 µM) | 4 (≈ 7.62 µM) |  | 0.13 (≈ 0.248 µM) | 0.5 (≈ 0.953 µM) | 1 (≈ 1.91 µM) | > 125 | 1 (≈ 1.91 µM) |
| CC#CC1=C(C(=O)OC(c2ccccc2)c2ccccc2)N2C(=O)C(NC(=O)Cc3ccccc3)[C@H]2SC1 (some centres unmarked) [Ex. 2, Diphenylmethyl 7-phenylacetamido-3-(1-propynyl)-3-cephem-4-carboxylate] |  | 4 (≈ 7.65 µM) | 16 (≈ 30.6 µM) | 8 (≈ 15.3 µM) | > 16 | 16 (≈ 30.6 µM) | > 16 | 16 (≈ 30.6 µM) | 16 (≈ 30.6 µM) |  | 4 (≈ 7.65 µM) | > 16 | 16 (≈ 30.6 µM) | > 16 | 8 (≈ 15.3 µM) |
| CC(C)=CC1=C(C(=O)OC(c2ccccc2)c2ccccc2)N2C(=O)C(NC(=O)Cc3ccccc3)[C@H]2SC1 (some centres unmarked) [Ex. 3, Diphenylmethyl 7-phenylacetamido-3-(2-methyl-1-propenyl)-3-cephem-4-carboxylate] |  | 0.03 (≈ 0.0557 µM) | 4 (≈ 7.43 µM) | 0.03 (≈ 0.0557 µM) | 63 (≈ 117 µM) | 4 (≈ 7.43 µM) | > 125 | 2 (≈ 3.71 µM) | 32 (≈ 59.4 µM) |  |  | 0.06 (≈ 0.111 µM) | 4 (≈ 7.43 µM) | > 125 | 0.5 (≈ 0.928 µM) |
| CC=C=CC1=C(C(=O)O)N2C(=O)C(NC(=O)[C@H](N)c3ccc(O)cc3)C2SC1 (some centres unmarked) [Ex. 14] |  | 2 (≈ 4.98 µM) | > 63 | 2 (≈ 4.98 µM) | > 63 | > 63 | > 63 | > 63 | > 63 |  | 8 (≈ 19.9 µM) | 32 (≈ 79.7 µM) | 63 (≈ 157 µM) | > 63 | 63 (≈ 157 µM) |
